{
  "source": "patent US20050032854A1",
  "about": "“Insulin resistance improving agents” (priority 2001, published 2005)",
  "system": "spontaneously hypertensive rats (SHR)",
  "test": "Insulin sensitivity evaluation by glucose clamp technique in spontaneously hypertensive rats (SHR)",
  "assay_type": "in vivo, rat",
  "conditions": "for M-value (average glucose infusion rate, index of insulin sensitivity): n=10, vehicle 5.9±0.5",
  "protocol": "For evaluation of insulin resistance, 23-week-old spontaneously hypertensive rats (SHR) were used. Vehicle (0.5% methyl cellulose solution administration) and compound A (0.3 and 1 mg/kg/day) were orally administered for 2 weeks, after which an insulin sensitivity evaluation test by a glucose clamp technique was performed. The rats were grouped such that each parameter was leveled based on the glucose level and plasma insulin value before start of the drug administration. SHR were fasted from the evening of the day before the operation of the glucose clamp technique.\nThe glucose clamp technique was performed according to the following procedures. The rats were anesthetized with pentobarbital sodium (50 mg/kg i.p.) and catheters [PR45 (trademark), NATUME SEISAKUSHO CO., LTD.] for blood collection, for intravenous injection of insulin [novolin R injection 40 (trademark), Novo Nordisk Pharma Ltd.] and for intravenous injection of glucose [Otsuka glucose injection 50% (trademark), Otsuka Pharmaceutical Co., Ltd.] were each placed in the right common carotid artery, left femoral vein and right femoral vein, respectively. The glucose level was measured using a simplified glucose meter [Advantage II (trademark), Roche Diagnostics Corporation]. Using a peristaltic pump [MINIPULS 3 (trademark), Gilson Company, Inc.], insulin was constantly infused continuously at an injection rate of 40 and 20 mU/kg/min for 5 and 3 min, respectively, to afford a high insulin state, and thereafter high insulin state was maintained at 8 mU/kg/min.. Glucose was constantly infused intravenously to maintain the range of initial value±10% of blood glucose, using a different peristaltic pump. […] Glucose was constantly infused for-90 min and an average of glucose infusion rate for the period of 40 min from 50 min to 90 min after the start of the infusion was calculated and used as an index showing the insulin sensitivity (M-value). […] For statistic analysis, Williams' test was used and significance was evaluated at a risk rate of less than 2.5%.",
  "data": [
    {"smiles": "CCOc1nc2cccc(C(=O)O)c2n1Cc1ccc(-c2ccccc2-c2nc(=O)o[nH]2)cc1", "note": "[compound A, 2-Ethoxy-1-[[2′-(5-oxo-2,5-dihydro-1,2,4-oxadiazol-3-yl)biphenyl-4-yl]methyl]-1H-benzimidazole-7-carboxylic acid]", "values": [
      {"measurement": "M-value (average glucose infusion rate, index of insulin sensitivity)", "setting": "0.3 mg/kg/day orally for 2 weeks", "value": "7.8 ± 0.5", "unit": "mg/kg/min"},
      {"measurement": "M-value (average glucose infusion rate, index of insulin sensitivity)", "setting": "1 mg/kg/day orally for 2 weeks", "value": "8.6 ± 0.6", "unit": "mg/kg/min"},
      {"measurement": "insulin sensitivity enhancing effect", "setting": "0.3 and 1 mg/kg/day orally for 2 weeks", "value": "dose-dependent insulin sensitivity enhancing effect"}
    ]}
  ]
}
